These results are taken from patent US20120232070A1, “Use of Indole Derivatives as Nurr-1 Activators for the Application Thereof as a Medicament for the Treatment of Parkinson's Disease” (Laboratoires Fournier SA, priority 2009, published 2012).

Assay [1] addresses hNurr1_RXRαFL (NURR1/RXRα heterodimer) (Homo sapiens, UniProt P19793+P43354). Put plainly: Transactivation assay in Cos-7 cells, NURR-1-Gal4 / RXRα, luciferase reporter. It is filed as cell-based. As to conditions: for Emax: COS-7, read-out: hNurr1_RXRαFL Eff (%), efficacy in % relative to the reference XCT0135908 at 2·10^−5 M (=100%); for EC50: Cos-7 cells, overnight incubation. The procedure:
(§1) First, the capacity of the compounds according to the invention for acting as an activator of the heterodimers formed by the NURR-1 nuclear receptor and the RXR nuclear receptors was measured by an in vitro assay.
(§2) A transactivation assay was used as a primary screening assay. Cos-7 cells were co-transfected with a plasmid expressing a chimera of the human receptor NURR-1-Gal4, a plasmid expressing the human receptor RXR (RXRα or RXRγ receptor) and a reporter plasmid 5Gal4pGL3-TK-Luc. The transfections were performed by means of a chemical agent (Jet PEI).
(§3) The transfected cells were distributed in 384-well plates and left resting for 24 hours.
(§4) After 24 hours, the culture medium was changed. The products according to the invention were added (final concentration between 10^−4 and 3·10^−10 M) to the culture medium. After overnight incubation, luciferase expression was measured after addition of “SteadyGlo” according to the manufacturer's instructions (Promega).
(§5) 4-[[6-Methyl-2-phenyl-5-(2-prop enyl)-4-pyrimidinyl]amino]-benzoic acid (called XCT0135908, which was described in the article by Wallen-Mackenzie et al. published in Genes & Development 17, pages 3036-3047) at 2·10^−5 M (RXR agonist) was used as reference.
(§6) The levels of induction (designated by “efficiency”) were calculated relative to the baseline activity of each heterodimer. The results were expressed as a percentage of the level of induction relative to the level of induction obtained with the reference (the level of induction of the reference is arbitrarily taken to be 100%).
(Reporter assays use an easily measured gene product as a stand-in for the process of interest.)

Assay [2] has as its target hNurr1_RXRγFL (NURR1/RXRγ heterodimer) (Homo sapiens, UniProt P43354+P48443). Put plainly: Transactivation assay in Cos-7 cells, NURR-1-Gal4 / RXRγ, luciferase reporter. As to conditions: for Emax: COS-7, read-out: hNurr1_RXRγFL Eff (%), efficacy in % relative to the reference XCT0135908 at 2·10^−5 M (=100%); for EC50: Cos-7 cells, overnight incubation. It is filed as cell-based. The procedure: as §1, §2, §3, §4, §5, §6

Sequence of hNurr1_RXRαFL (NURR1/RXRα heterodimer) (P19793 whole entry, the tested form may be a part): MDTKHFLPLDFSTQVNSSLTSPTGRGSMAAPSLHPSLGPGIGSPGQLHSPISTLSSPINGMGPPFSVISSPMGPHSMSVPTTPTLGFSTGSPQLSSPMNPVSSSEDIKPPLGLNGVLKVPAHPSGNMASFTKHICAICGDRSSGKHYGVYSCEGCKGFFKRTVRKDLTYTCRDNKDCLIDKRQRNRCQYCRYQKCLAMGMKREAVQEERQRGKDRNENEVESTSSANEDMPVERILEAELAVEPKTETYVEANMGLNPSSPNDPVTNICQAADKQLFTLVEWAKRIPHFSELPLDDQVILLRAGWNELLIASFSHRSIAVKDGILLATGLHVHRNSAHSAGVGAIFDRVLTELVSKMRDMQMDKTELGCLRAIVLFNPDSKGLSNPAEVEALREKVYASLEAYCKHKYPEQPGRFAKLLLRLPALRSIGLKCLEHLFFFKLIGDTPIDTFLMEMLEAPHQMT
Sequence of hNurr1_RXRαFL (NURR1/RXRα heterodimer) (P43354 328-598): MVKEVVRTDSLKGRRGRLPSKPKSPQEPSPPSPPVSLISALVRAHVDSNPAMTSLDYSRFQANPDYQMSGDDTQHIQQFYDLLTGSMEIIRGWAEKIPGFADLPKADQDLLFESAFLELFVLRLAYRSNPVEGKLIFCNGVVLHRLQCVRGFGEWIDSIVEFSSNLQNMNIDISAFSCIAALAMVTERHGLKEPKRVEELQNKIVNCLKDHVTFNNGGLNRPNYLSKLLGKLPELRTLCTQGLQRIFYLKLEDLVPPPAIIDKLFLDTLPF
Sequence of hNurr1_RXRγFL (NURR1/RXRγ heterodimer) (P43354 328-598): as above
Sequence of hNurr1_RXRγFL (NURR1/RXRγ heterodimer) (P48443 whole entry, the tested form may be a part): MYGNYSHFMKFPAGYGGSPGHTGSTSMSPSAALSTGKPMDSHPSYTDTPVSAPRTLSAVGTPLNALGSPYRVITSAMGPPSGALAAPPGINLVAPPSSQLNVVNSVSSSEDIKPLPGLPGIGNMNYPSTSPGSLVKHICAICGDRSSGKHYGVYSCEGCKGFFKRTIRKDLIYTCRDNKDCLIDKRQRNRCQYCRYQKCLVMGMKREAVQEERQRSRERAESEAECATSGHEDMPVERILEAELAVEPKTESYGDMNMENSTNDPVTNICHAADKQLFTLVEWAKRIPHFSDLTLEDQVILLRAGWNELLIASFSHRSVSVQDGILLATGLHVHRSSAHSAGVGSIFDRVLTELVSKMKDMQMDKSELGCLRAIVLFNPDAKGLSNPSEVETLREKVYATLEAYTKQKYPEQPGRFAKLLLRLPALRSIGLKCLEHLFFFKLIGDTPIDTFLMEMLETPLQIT

Broadly, the EC50 is the concentration needed to bring the measured effect to its halfway point. A low value points to greater potency. For the molecule `CCC(C)(C)c1ccc(S(=O)(=O)n2c(Cc3ccc(C(=O)O)cc3)cc3cc(C(F)(F)F)ccc32)cc1` [Example 12, 4-[[1-[[4-(1,1-dimethylpropyl)phenyl]sulfonyl]-5-(trifluoromethyl)-1H-indol-2-yl]methyl]benzoic acid], in assay [1], the Emax was determined as 54% and the midpoint of the response, the EC50, lay at 113 nM. Further, in assay [2], the Emax is 45% and the EC50 was 148 nM.

On to `COc1cccc(S(=O)(=O)n2c(Cc3ccc(C(=O)O)cc3)cc3cc(C(F)(F)F)ccc32)c1` [Example 13, 4-[[1-[(3-methoxyphenyl)sulfonyl]-5-(trifluoromethyl)-1H-indol-2-yl]methyl]benzoic acid], for which, in assay [1], the Emax was found to be 69% and the response was half-maximal at 207 nM (EC50). Further, in assay [2], the Emax came out at 36% and the concentration for a half-maximal effect (EC50) turned out to be 528 nM.

With `O=C(O)c1ccc(Cc2cc3cc(C(F)(F)F)ccc3n2S(=O)(=O)c2ccc(-c3ccccc3)s2)cc1` [Example 14, 4-[[1-[(5-phenyl-2-thienyl)sulfonyl]-5-(trifluoromethyl)-1H-indol-2-yl]methyl]benzoic acid], in assay [1], the Emax is 69% and it took 396 nM to reach a half-maximal effect (EC50). For the same molecule, in assay [2], the Emax amounted to 30% and the EC50 amounted to 778 nM.

As to `O=C(O)c1ccc(Cc2cc3cc(C(F)(F)F)ccc3n2S(=O)(=O)c2ccc(F)c(Cl)c2)cc1` [Example 15, 4-[[1-[(3-chloro-4-fluorophenyl)sulfonyl]-5-(trifluoromethyl)-1H-indol-2-yl]methyl]benzoic acid], the values for the Emax in assay [1] and in assay [2] were 66% and 54%, respectively. Also, the half-maximal effective concentration (EC50) turned out to be 372 nM in assay [1] and 746 nM in assay [2].

Take `O=C(O)c1ccc(Cc2cc3cc(C(F)(F)F)ccc3n2S(=O)(=O)c2ccsc2)cc1` [Example 16, 4-[[1-(3-thienylsulfonyl)-5-(trifluoromethyl)-1H-indol-2-yl]methyl]benzoic acid]: in assay [1], the Emax worked out at 66% and the half-maximal effective concentration (EC50) is 617 nM. In addition, in assay [2], the Emax came out at 45% and the half-maximal effective concentration (EC50) was 628 nM.

Take `Cn1ccc(-c2cccc(S(=O)(=O)n3c(Cc4ccc(C(=O)O)cc4)cc4cc(C(F)(F)F)ccc43)c2)n1` [Example 18, 4-[[1-[[3-(1-methyl-1H-pyrazol-3-yl)phenyl]sulfonyl]-5-(trifluoromethyl)-1H-indol-2-yl]methyl]benzoic acid]: in assay [1], the Emax is 60% and the concentration giving a half-maximal response (EC50) is 407 nM. For the same molecule, in assay [2], the Emax stood at 34% and the EC50 is 668 nM.

Consider `Cn1nccc1-c1cccc(S(=O)(=O)n2c(Cc3ccc(C(=O)O)cc3)cc3cc(C(F)(F)F)ccc32)c1` [Example 20, 4-[[1-[[3-(1-methyl-1H-pyrazol-5-yl)phenyl]sulfonyl]-5-(trifluoromethyl)-1H-indol-2-yl]methyl]benzoic acid], for which, in assay [1], the Emax was 54% and the EC50 came out at 295 nM. In assay [2], the Emax came to 44% and the EC50 is 617 nM.

As to `CC(C)(C)c1ccc(S(=O)(=O)n2c(Cc3ccc(C(=O)O)cc3)cc3cc(C(F)(F)F)ccc32)cc1` [Example 21, 4-[[1-[[4-(1,1-dimethylethyl)phenyl]sulfonyl]-5-(trifluoromethyl)-1H-indol-2-yl]methyl]benzoic acid], the Emax in assay [1] is 46%; in assay [2], 35%. Besides, the values for the concentration for a half-maximal effect (EC50) in assay [1] and in assay [2] were 121 nM and 240 nM, respectively.

Take `O=C(O)c1ccc(Cc2cc3cc(C(F)(F)F)ccc3n2S(=O)(=O)c2ccc3c(c2)OCCO3)cc1` [Example 22, 4-[[1-[(2,3-dihydro-1,4-benzodioxin-6-yl)sulfonyl]-5-(trifluoromethyl)-1H-indol-2-yl]methyl]benzoic acid]: the figures for the Emax in assay [1] and in assay [2] were 45% and 43%, respectively. For the same molecule, the EC50 worked out at 207 nM in assay [1] and 346 nM in assay [2].

On to `O=C(O)c1ccc(Cc2cc3cc(C(F)(F)F)ccc3n2S(=O)(=O)c2ccc3ccccc3c2)cc1` [Example 25, 4-[[1-(2-naphthalenylsulfonyl)-5-(trifluoromethyl)-1H-indol-2-yl]methyl]benzoic acid], for which, in assay [1], the Emax came out at 47% and the half-maximal effective concentration (EC50) came to 496 nM. Further, in assay [2], the Emax amounted to 33% and a half-maximal response (EC50) required 864 nM.

For the molecule `O=C(O)c1ccc(Cc2cc3cc(Cl)ccc3n2S(=O)(=O)c2cccc(C(F)(F)F)c2)cc1` [Example 28, 4-[[5-chloro-1-[[3-(trifluoromethyl)phenyl]sulfonyl]-1H-indol-2-yl]-methyl]benzoic acid], in assay [1], the Emax was 78% and the EC50 was 332 nM. In assay [2], the Emax is 67% and the midpoint of the response, the EC50, lay at 443 nM.

For `COC(=O)c1ccc(Cc2cc3cc(Cl)ccc3n2S(=O)(=O)c2ccc(C(C)C)cc2)cc1` [Example 40, 4-[[5-chloro-1-[[4-(1-methylethyl)phenyl]sulfonyl]-1H-indol-2-yl]methyl]benzoic acid, methyl ester], in assay [1], the Emax was found to be 96% and the EC50 worked out at 560 nM. In assay [2], the Emax came out at 75% and a half-maximal response (EC50) required 2110 nM.

On to `CC(C)c1ccc(S(=O)(=O)n2c(Cc3ccc(C(=O)O)cc3)cc3cc(C(F)(F)F)ccc32)cc1` [Example 43, 4-[[1-[[4-(1-methylethyl)phenyl]sulfonyl]-5-(trifluoromethyl)-1H-indol-2-yl]methyl]benzoic acid], for which the Emax came to 73% in assay [1] and 79% in assay [2]. For the same molecule, the 50% effective concentration (EC50) was determined as 291 nM in assay [1] and 616 nM in assay [2].

`CN1CCOc2ccc(S(=O)(=O)n3c(Cc4ccc(C(=O)O)cc4)cc4cc(C(F)(F)F)ccc43)cc21` [Example 45, 4-[[1-[(3,4-dihydro-4-methyl-2H-1,4-benzoxazin-6-yl)sulfonyl]-5-(trifluoromethyl)-1H-indol-2-yl]methyl]benzoic acid]: the Emax in assay [1] is 70%; in assay [2], 50%. For the same molecule, the results for the EC50 in assay [1] and in assay [2] were 97 nM and 201 nM, respectively.

Regarding `CC(C)c1cccc(S(=O)(=O)n2c(Cc3ccc(C(=O)O)cc3)cc3cc(Cl)ccc32)c1` [Example 51, 4-[[5-chloro-1-[[3-(1-methylethyl)phenyl]sulfonyl]-1H-indol-2-yl]-methyl]benzoic acid], the values for the Emax in assay [1] and in assay [2] were 74% and 69%, respectively. Moreover, the EC50 was 801 nM in assay [1] and 1130 nM in assay [2].

`O=C(O)c1ccc(Cc2cc3cc(C(F)(F)F)ccc3n2S(=O)(=O)c2cccc(C3CC3)c2)cc1` [Example 59, 4-[1-(3-cyclopropyl-benzenesulfonyl)-5-trifluoromethyl-1H-indol-2-ylmethyl]-benzoic acid]: in assay [1], the Emax is 70% and the response was half-maximal at 274 nM (EC50). In addition, in assay [2], the Emax turned out to be 31% and the EC50 was 297 nM.

`CC(C)(C)c1cccc(S(=O)(=O)n2c(Cc3ccc(C(=O)O)cn3)cc3cc(C(F)(F)F)ccc32)c1` [Example 66]: in assay [1], the Emax was determined as 80% and the concentration for a half-maximal effect (EC50) was 71 nM. Further, in assay [2], the Emax was found to be 79% and a half-maximal response (EC50) required 110 nM.

Regarding `CC(C)c1ccc(S(=O)(=O)n2c(Cc3ccc(C(=O)O)c(O)c3)cc3cc(C(F)(F)F)ccc32)cc1` [Example 68, 2-hydroxy-4-[[1-[[4-(1-methylethyl)phenyl]sulfonyl]-5-(trifluoromethyl)-1H-indol-2-yl]methyl]-benzoic acid], in assay [1], the Emax amounted to 51% and the EC50 is 343 nM. In addition, in assay [2], the Emax was 43% and the half-maximal effective concentration (EC50) is 553 nM.

Consider `CC(C)(C)c1cccc(S(=O)(=O)n2c(Cc3ccc(C(=O)O)o3)cc3cc(C(F)(F)F)ccc32)c1` [Example 69, 5-[[1-[[3-(1,1-dimethylethyl)-phenyl]sulfonyl]-5-trifluoromethyl-1H-indol-2-yl]methyl]-furan-2-carboxylic acid], for which, in assay [1], the Emax was determined as 79% and the concentration giving a half-maximal response (EC50) stood at 9 nM. In assay [2], the Emax is 72% and a half-maximal effect (EC50) was put at 15 nM.

Take `CC(C)(C)c1cccc(S(=O)(=O)n2c(Cc3csc(C(=O)O)c3)cc3cc(C(F)(F)F)ccc32)c1` [Example 70, 4-[[1-[[3-(1,1-dimethylethyl)-phenyl]sulfonyl]-5-trifluoromethyl-1H-indol-2-yl]methyl]-thiophene-2-carboxylic acid]: in assay [1], the Emax worked out at 94% and the EC50 was found to be 5 nM. In assay [2], the Emax came to 91% and it took 8 nM to reach a half-maximal effect (EC50).

`CC(C)c1ccc(S(=O)(=O)n2c(Cc3ccc(C(=O)O)s3)cc3cc(C(F)(F)F)ccc32)cc1` [Example 71, 5-[[1-[[4-(1-methylethyl)-phenyl]sulfonyl]-5-trifluoromethyl-1H-indol-2-yl]methyl]-thiophene-2-carboxylic acid]: in assay [1], the Emax is 61% and the half-maximal effective concentration (EC50) is 47 nM. In assay [2], the Emax was determined as 82% and a half-maximal response (EC50) required 95 nM.
